The values that follow come from patent US20250215030A1, “STAT MODULATORS AND USES THEREOF” (Recludix Pharma, Inc., priority 2022, published 2025).

Test [1] has as its target T1, Recombinant STAT3 protein (STAT3(G127-I722)) (Homo sapiens, UniProt P40763).
T1 construct: STAT3(G127-I722)
Kind of test: STAT3 Fluorescence Polarization (FP) Assay. It is filed as binding. The conditions noted are these: STAT3(G127-I722) 25 nM, probe 5-FAM-GpYLPQTV-NH2 2 nM, 45-minute incubation. A digest of the protocol: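 STAT3(G127-I722) at 25 nM and 5-FAM-GpYLPQTV-NH2 probe at 2 nM in HEPES pH 7.4 buffer with NaCl, EDTA, Tween 20, DTT; 1% DMSO. FP read after 45 min at room temperature; IC50 by nonlinear regression of mP vs log concentration, binned A ≤100 nM to D >10 μM.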

Test [2] concerns the target T2, Recombinant STAT6 protein (STAT6(W123-T658)) (Homo sapiens, UniProt P42226).
T2 construct: STAT6(W123-T658)
T2 sequence (P42226 123-658): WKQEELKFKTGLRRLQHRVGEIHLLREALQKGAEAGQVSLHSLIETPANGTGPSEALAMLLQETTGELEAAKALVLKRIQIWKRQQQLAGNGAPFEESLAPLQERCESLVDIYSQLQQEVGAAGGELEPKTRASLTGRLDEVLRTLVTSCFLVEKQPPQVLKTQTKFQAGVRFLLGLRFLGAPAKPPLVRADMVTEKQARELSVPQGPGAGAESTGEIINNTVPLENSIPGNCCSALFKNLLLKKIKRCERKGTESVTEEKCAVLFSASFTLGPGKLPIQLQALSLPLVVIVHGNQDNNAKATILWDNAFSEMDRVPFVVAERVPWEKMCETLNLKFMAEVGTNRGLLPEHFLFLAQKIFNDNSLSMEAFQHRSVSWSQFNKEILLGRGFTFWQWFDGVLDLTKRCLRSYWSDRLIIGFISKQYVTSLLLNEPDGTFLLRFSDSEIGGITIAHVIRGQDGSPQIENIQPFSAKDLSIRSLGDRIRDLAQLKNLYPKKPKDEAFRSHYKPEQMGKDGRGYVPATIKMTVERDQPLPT
The test can be described thus: STAT6 Fluorescence Polarization (FP) Assay. It counts as binding. The conditions noted are these: STAT6(W123-T658) 250 nM, probe 5-FAM-ApYKPFQDLI-NH2 2 nM, 45-minute incubation. In a few lines: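 STAT6 (W123-T658) at 250 nM mixed with 2 nM 5-FAM-ApYKPFQDLI-NH2 probe in HEPES pH 7.4 buffer with DTT and Tween 20, 1% DMSO final. Polarization read after 45 min at room temperature; IC50 by nonlinear regression of mP versus log concentration, reported in bins A–D.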

T1 sequence (P40763 127-722, species assumed): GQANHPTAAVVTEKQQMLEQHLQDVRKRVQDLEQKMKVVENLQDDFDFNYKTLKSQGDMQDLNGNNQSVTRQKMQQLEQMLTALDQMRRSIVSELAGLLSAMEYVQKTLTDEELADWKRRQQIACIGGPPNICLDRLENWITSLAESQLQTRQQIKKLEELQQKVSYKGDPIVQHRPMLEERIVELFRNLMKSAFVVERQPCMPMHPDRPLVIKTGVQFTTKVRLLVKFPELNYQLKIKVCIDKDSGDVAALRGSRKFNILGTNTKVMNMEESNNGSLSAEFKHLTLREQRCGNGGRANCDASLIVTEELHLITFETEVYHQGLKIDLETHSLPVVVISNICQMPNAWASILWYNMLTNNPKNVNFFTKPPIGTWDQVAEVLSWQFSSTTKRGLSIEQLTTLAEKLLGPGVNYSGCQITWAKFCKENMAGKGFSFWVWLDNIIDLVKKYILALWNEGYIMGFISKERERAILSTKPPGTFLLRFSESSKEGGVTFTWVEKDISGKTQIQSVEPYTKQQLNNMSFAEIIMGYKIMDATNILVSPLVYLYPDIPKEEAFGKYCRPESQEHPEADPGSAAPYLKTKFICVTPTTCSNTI

Turning to `O=C(N[C@H]1C[C@@H]2C[C@@H]2C[C@H]2CC[C@@H](C(=O)N3CC(c4cnccc4F)C3)N2C1=O)c1cc2cc(CP(=O)(O)O)ccc2s1` [Example 247, ((2-(((3S,6S,7aS,8aR,9aR)-3-(3-(4-fluoropyridin-3-yl)azetidine-1-carbonyl)-5-oxodecahydro-1H-cyclopropa[d]pyrrolo[1,2-a]azocin-6-yl)carbamoyl)benzo[b]thiophen-5-yl)methyl)phosphonic acid], the IC50 (in general, the point on the concentration scale where inhibition reaches its midpoint) was less than 0.1 µM in test [1] and greater than 30 µM in test [2].
The corresponding values for `O=C(N[C@H]1C[C@H]2C[C@H]2C[C@H]2CC[C@@H](C(=O)N3CC(c4cnccc4F)C3)N2C1=O)c1cc2cc(C(F)P(=O)(O)O)ccc2s1` (stereo partly drawn) [Example 248, (fluoro(2-(((3S,6S,7aR,8aS,9aR)-3-(3-(4-fluoropyridin-3-yl)azetidine-1-carbonyl)-5-oxodecahydro-1H-cyclopropa[d]pyrrolo[1,2-a]azocin-6-yl)carbamoyl)benzo[b]thiophen-5-yl)methyl)phosphonic acid] are less than 0.1 µM and 0.3 to 3 µM.
`O=C(N[C@H]1C[C@H]2C[C@H]2C[C@H]2CC[C@@H](C(=O)N3CC(c4cnccc4F)C3)N2C1=O)c1cc2cc(CP(=O)(O)O)ccc2s1` [Example 250, ((2-(((3S,6S,7aR,8aS,9aR)-3-(3-(4-fluoropyridin-3-yl)azetidine-1-carbonyl)-5-oxodecahydro-1H-cyclopropa[d]pyrrolo[1,2-a]azocin-6-yl)carbamoyl)benzo[b]thiophen-5-yl)methyl)phosphonic acid]: the values for the 50% inhibitory concentration (IC50) in test [1] and in test [2] were less than 0.1 µM and 3 to 30 µM, respectively.
The matching figures for `CCc1ccncc1C1CN(C(=O)[C@@H]2CC[C@@H]3C[C@H]4C[C@H]4C[C@H](NC(=O)c4cc5cc(CP(=O)(O)O)ccc5s4)C(=O)N32)C1` [Example 252, ((2-(((3S,6S,7aS,8aR,9aR)-3-(3-(4-ethylpyridin-3-yl)azetidine-1-carbonyl)-5-oxodecahydro-1H-cyclopropa[d]pyrrolo[1,2-a]azocin-6-yl)carbamoyl)benzo[b]thiophen-5-yl)methyl)phosphonic acid]: less than 0.1 µM and greater than 30 µM.
The matching figures for `O=C(N[C@H]1C[C@H]2C[C@H]2C[C@H]2CC[C@@H](C(=O)N[C@H]3CN(c4cccnc4)C[C@@H]3F)N2C1=O)c1cc2cc(CP(=O)(O)O)ccc2s1` [Example 253, ((2-(((3S,6S,7aR,8aS,9aR)-3-(((3S,4S)-4-fluoro-1-(pyridin-3-yl)pyrrolidin-3-yl)carbamoyl)-5-oxodecahydro-1H-cyclopropa[d]pyrrolo[1,2-a]azocin-6-yl)carbamoyl)benzo[b]thiophen-5-yl)methyl)phosphonic acid]: less than 0.1 µM and 3 to 30 µM.
The matching figures for `CC(=O)N1C[C@H](NC(=O)[C@@H]2CC[C@@H]3C[C@@H]4C[C@@H]4C[C@H](NC(=O)c4cc5cc(C(F)P(=O)(O)O)ccc5s4)C(=O)N32)[C@@H](F)C1` (stereo partly drawn) [Example 254, ((2-(((3S,6S,7aR,8aS,9aR)-3-(((3S,4S)-1-acetyl-4-fluoropyrrolidin-3-yl)carbamoyl)-5-oxodecahydro-1H-cyclopropa[d]pyrrolo[1,2-a]azocin-6-yl)carbamoyl)benzo[b]thiophen-5-yl)fluoromethyl)phosphonic acid]: 0.1 to 1 µM and 0.3 to 3 µM.
On to `O=C(N[C@H]1C[C@@H]2C[C@@H]2C[C@H]2CC[C@@H](C(=O)N[C@H]3CN(c4cccnc4)C[C@@H]3F)N2C1=O)c1cc2cc(CP(=O)(O)O)ccc2s1` [Example 256, ((2-(((3S,6S,7aS,8aR,9aR)-3-(((3S,4S)-4-fluoro-1-(pyridin-3-yl)pyrrolidin-3-yl)carbamoyl)-5-oxodecahydro-1H-cyclopropa[d]pyrrolo[1,2-a]azocin-6-yl)carbamoyl)benzo[b]thiophen-5-yl)methyl)phosphonic acid], for which the results for the IC50 in test [1] and in test [2] were 0.1 to 1 µM and 3 to 30 µM, respectively.
`O=C(N[C@H]1C[C@@H]2C[C@@H]2C[C@H]2CC[C@@H](C(=O)N[C@H]3CN(c4ncccn4)C[C@@H]3F)N2C1=O)c1cc2cc(CP(=O)(O)O)ccc2s1` [Example 257, ((2-(((3S,6S,7aS,8aR,9aR)-3-(((3S,4S)-4-fluoro-1-(pyrimidin-2-yl)pyrrolidin-3-yl)carbamoyl)-5-oxodecahydro-1H-cyclopropa[d]pyrrolo[1,2-a]azocin-6-yl)carbamoyl)benzo[b]thiophen-5-yl)methyl)phosphonic acid]: the IC50 is greater than 10 µM in test [1] and 3 to 30 µM in test [2].
The corresponding values for `CC(=O)N1CC2C1CCN2C(=O)[C@@H]1CC[C@@H]2C[C@H]3C[C@H]3C[C@H](NC(=O)c3cc4cc(C(F)(F)P(=O)(O)O)ccc4s3)C(=O)N21` (stereo partly drawn) [Example 258, ((2-(((3S,6S,7aS,8aR,9aR)-3-(6-acetyl-2,6-diazabicyclo[3.2.0]heptane-2-carbonyl)-5-oxodecahydro-1H-cyclopropa[d]pyrrolo[1,2-a]azocin-6-yl)carbamoyl)benzo[b]thiophen-5-yl)difluoromethyl)phosphonic acid] are less than 0.1 µM and 0.3 to 3 µM.
`O=C(N[C@H]1C[C@@H]2C[C@@H]2C[C@H]2CC[C@@H](C(=O)N3CCC4C3CN4c3cccnc3)N2C1=O)c1cc2cc(C(F)(F)P(=O)(O)O)ccc2s1` (stereo partly drawn) [Example 259, (difluoro(2-(((3S,6S,7aS,8aR,9aR)-5-oxo-3-(6-(pyridin-3-yl)-2,6-diazabicyclo[3.2.0]heptane-2-carbonyl)decahydro-1H-cyclopropa[d]pyrrolo[1,2-a]azocin-6-yl)carbamoyl)benzo[b]thiophen-5-yl)methyl)phosphonic acid]: the IC50 was less than 0.1 µM in test [1] and 0.3 to 3 µM in test [2].
On to `CC(=O)N1CC2C1CCN2C(=O)[C@@H]1CC[C@@H]2C[C@H]3C[C@H]3C[C@H](NC(=O)c3cc4cc(CP(=O)(O)O)ccc4s3)C(=O)N21` (stereo partly drawn) [Example 260, ((2-(((3S,6S,7aS,8aR,9aR)-3-(6-acetyl-2,6-diazabicyclo[3.2.0]heptane-2-carbonyl)-5-oxodecahydro-1H-cyclopropa[d]pyrrolo[1,2-a]azocin-6-yl)carbamoyl)benzo[b]thiophen-5-yl)methyl)phosphonic acid], for which the IC50 in test [1] was 1 to 10 µM; in test [2], greater than 30 µM.
The matching figures for `O=C(N[C@H]1C[C@@H]2C[C@@H]2C[C@H]2CC[C@@H](C(=O)N3CCC4C3CN4c3cccnc3)N2C1=O)c1cc2cc(CP(=O)(O)O)ccc2s1` (stereo partly drawn) [Example 261, ((2-(((3S,6S,7aS,8aR,9aR)-5-oxo-3-(6-(pyridin-3-yl)-2,6-diazabicyclo[3.2.0]heptane-2-carbonyl)decahydro-1H-cyclopropa[d]pyrrolo[1,2-a]azocin-6-yl)carbamoyl)benzo[b]thiophen-5-yl)methyl)phosphonic acid]: 0.1 to 1 µM and 3 to 30 µM.
The corresponding values for `O=C(N[C@H]1C[C@@H]2C[C@@H]2C[C@H]2CC[C@@H](C(=O)N3CC(c4cnccc4F)C3)N2C1=O)c1cc2cc(C(F)P(=O)(O)O)ccc2s1` (stereo partly drawn) [Example 262, (fluoro(2-(((3S,6S,7aS,8aR,9aR)-3-(3-(4-fluoropyridin-3-yl)azetidine-1-carbonyl)-5-oxodecahydro-1H-cyclopropa[d]pyrrolo[1,2-a]azocin-6-yl)carbamoyl)benzo[b]thiophen-5-yl)methyl)phosphonic acid] are less than 0.1 µM and 0.3 to 3 µM.
The corresponding values for `COc1ccncc1C1CN(C(=O)[C@@H]2CC[C@@H]3C[C@H]4C[C@H]4C[C@H](NC(=O)c4cc5cc(CP(=O)(O)O)ccc5s4)C(=O)N32)C1` [Example 265, ((2-(((3S,6S,7aS,8aR,9aR)-3-(3-(4-methoxypyridin-3-yl)azetidine-1-carbonyl)-5-oxodecahydro-1H-cyclopropa[d]pyrrolo[1,2-a]azocin-6-yl)carbamoyl)benzo[b]thiophen-5-yl)methyl)phosphonic acid] are less than 0.1 µM and greater than 30 µM.
Turning to `CCc1ccncc1C1CN(C(=O)[C@@H]2CC[C@@H]3C[C@H]4C[C@H]4C[C@H](NC(=O)c4cc5cc(C(F)P(=O)(O)O)ccc5s4)C(=O)N32)C1` (stereo partly drawn) [Example 266, ((2-(((3S,6S,7aS,8aR,9aR)-3-(3-(4-ethylpyridin-3-yl)azetidine-1-carbonyl)-5-oxodecahydro-1H-cyclopropa[d]pyrrolo[1,2-a]azocin-6-yl)carbamoyl)benzo[b]thiophen-5-yl)fluoromethyl)phosphonic acid], the IC50 in test [1] was less than 0.1 µM; in test [2], 3 to 30 µM.
